Target: T1, human chemokine receptor 2 isoform B (Homo sapiens, UniProt P41597)
T1 construct: host or cells: CHOK1-CCR2B-A5 cells (CHO-K1)
T1 sequence (P41597 1-360 isoform P41597-2): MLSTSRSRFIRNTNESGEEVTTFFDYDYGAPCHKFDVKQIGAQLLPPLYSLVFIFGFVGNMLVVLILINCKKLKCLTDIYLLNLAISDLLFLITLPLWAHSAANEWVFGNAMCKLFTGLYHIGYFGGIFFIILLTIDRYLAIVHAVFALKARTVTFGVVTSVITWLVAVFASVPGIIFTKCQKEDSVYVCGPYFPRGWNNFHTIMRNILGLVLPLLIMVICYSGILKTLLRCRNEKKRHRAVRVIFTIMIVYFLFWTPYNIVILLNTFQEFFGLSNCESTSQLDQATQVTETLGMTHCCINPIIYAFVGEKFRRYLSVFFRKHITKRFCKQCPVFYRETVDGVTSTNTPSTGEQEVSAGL
Assay: Calcium mobilization assay (FLIPR, antagonist activity against MCP-1)
Type: cell-based
Conditions: Ca mobilisation assay, CHOK1-CCR2B-A5 cells, inhibition of calcium increase induced by 20 nM MCP-1
Method in brief: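 CHOK1 cells stably overexpressing human CCR2B, loaded with 4 μM Fluo-4 for 2 h at 30° C, compounds added and agonist signal read by FLIPR for 80 s. After 20-30 min at 30° C, 20 nM MCP-1 was added and fluorescence read again. IC50 is 50% inhibition of specific calcium increase (max minus basal).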

IC50 [µM] | Compound
0.0659 | CC1(O)CCN(C(=O)CCN2CCN(C(=O)/C=C/c3ccc(Cl)c(Cl)c3)CCC2=O)CC1 [Example 73, 1-[(E)-3-(3,4-Dichloro-phenyl)-acryloyl]-4-[3-(4-hydroxy-4-methyl-piperidin-1-yl)-3-oxo-propyl]-[1,4]diazepan-5-one]
0.237 | C[C@H]1C(=O)N(CCC(=O)N2CCC3(CC3)[C@H](O)C2)CCN1C(=O)Nc1ccc(Cl)c(Cl)c1 [Example 15, (S)-4-[3-((S)-4-Hydroxy-6-aza-spiro[2.5]oct-6-yl)-3-oxo-propyl]-2-methyl-3-oxo-piperazine-1-carboxylic acid (3,4-dichloro-phenyl)-amide]
0.738 | COC(=O)[C@H](CCC(=O)N1CCC2(CC2)[C@H](O)C1)N1CCN(C(=O)Nc2ccc(C(F)(F)F)c(Cl)c2)[C@@H](C)C1=O [Example 52, (S)-2-[(S)-4-(3-Chloro-4-trifluoromethyl-phenylcarbamoyl)-3-methyl-2-oxo-piperazin-1-yl]-5-((S)-4-hydroxy-6-aza-spiro[2.5]oct-6-yl)-5-oxo-pentanoic acid methyl ester]
3.07 | C[C@H]1C(=O)N(CCC(=O)N2CCOCC2)CCN1C(=O)Nc1ccc(Cl)c(Cl)c1 [Example 22, (S)-2-Methyl-4-(3-morpholin-4-yl-3-oxo-propyl)-3-oxo-piperazine-1-carboxylic acid (3,4-dichloro-phenyl)-amide]
0.387 | C[C@H]1C(=O)N([C@@H](CCC(=O)N2CCC3(CC3)[C@H](O)C2)C(=O)O)CCN1C(=O)Nc1ccc(OC(F)(F)F)c(Cl)c1 [Example 56, Lithium; (S)-2-[(S)-4-(3-chloro-4-trifluoromethoxy-phenylcarbamoyl)-3-methyl-2-oxo-piperazin-1-yl]-5-((S)-4-hydroxy-6-aza-spiro[2.5]oct-6-yl)-5-oxo-pentanoate]
0.0035 | C[C@H]1C(=O)N(CCCC(=O)N2CCC3(CC3)[C@H](O)C2)[C@H](C(N)=O)CN1C(=O)Nc1ccc(C(F)(F)F)c(Cl)c1 [Example 147, (3S,6S)—N1-(3-chloro-4-(trifluoromethyl)phenyl)-4-(4-((S)-4-hydroxy-6-azaspiro[2.5]octan-6-yl)-4-oxobutyl)-6-methyl-5-oxopiperazine-1,3-dicarboxamide]
0.167 | O=C1CCN(c2ccc(OC(F)(F)F)c(Cl)c2)CCN1CCCC(=O)N1CCC2(CC2)[C@H](O)C1 [Example 122, 1-(3-Chloro-4-trifluoromethoxy-phenyl)-4-[4-((S)-4-hydroxy-6-aza-spiro[2.5]oct-6-yl)-4-oxo-butyl]-[1,4]diazepan-5-one]
4.07 | C[C@H]1C(=O)N(CCCC(=O)N2CCC3(CCCO3)CC2)CCN1C(=O)Nc1cccc(Cl)c1 [Example 108, (S)-2-Methyl-4-[4-(1-oxa-8-aza-spiro[4.5]dec-8-yl)-4-oxo-butyl]-3-oxo-piperazine-1-carboxylic acid (3-chloro-phenyl)-amide]
0.011 | C[C@H]1C(=O)N(CCCC(=O)N2CCC3(CC3)[C@H](O)C2)C(C(N)=O)CN1C(=O)Nc1ccc(Cl)c(Cl)c1 (stereo partly drawn) [Example 121, (3RS,6S)-4-[4-((S)-4-Hydroxy-6-aza-spiro[2.5]oct-6-yl)-4-oxo-butyl]-6-methyl-5-oxo-piperazine-1,3-dicarboxylic acid 3-amide 1-[(3,4-dichloro-phenyl)-amide]]
1.82 | O=C1CCCN(C(=O)CCN2CCN(C(=O)/C=C/c3ccc(Cl)c(Cl)c3)CCC2=O)C1 [Example 79, 1-[(E)-3-(3,4-Dichloro-phenyl)-acryloyl]-4-[3-oxo-3-(3-oxo-piperidin-1-yl)-propyl]-[1,4]diazepan-5-one]
0.1 | C[C@@H]1CN(CCC(=O)N2CCC3(CC3)[C@H](O)C2)C(=O)CCN1C(=O)/C=C/c1cccc(Cl)c1 [Example 104, (R)-1-[(E)-3-(3-Chloro-phenyl)-acryloyl]-4-[3-((S)-4-hydroxy-6-aza-spiro[2.5]oct-6-yl)-3-oxo-propyl]-2-methyl-[1,4]diazepan-5-one]
0.893 | C[C@H]1CCN(C(=O)CCCN2CCN(C(=O)Nc3cccc(Cl)c3)[C@@H](C)C2=O)C[C@H]1O [Example 111, (S)-4-[4-((3S,4S)-3-Hydroxy-4-methyl-piperidin-1-yl)-4-oxo-butyl]-2-methyl-3-oxo-piperazine-1-carboxylic acid (3-chloro-phenyl)-amide]
3.13 | C[C@H]1C(=O)N(CCCC(=O)N2CCC(C(F)(F)F)CC2)CCN1C(=O)Nc1cccc(Cl)c1 [Example 106, (S)-2-Methyl-3-oxo-4-[4-oxo-4-(4-trifluoromethyl-piperidin-1-yl)-butyl]-piperazine-1-carboxylic acid (3-chloro-phenyl)-amide]
1.36 | C[C@H]1C(=O)N(CCCC(=O)N2CC[C@H](F)[C@@H](O)C2)CCN1C(=O)Nc1cccc(Cl)c1 (mixture of isomers) [Example 115, (S)-4-[4-((3SR,4SR)-4-Fluoro-3-hydroxy-piperidin-1-yl)-4-oxo-butyl]-2-methyl-3-oxo-piperazine-1-carboxylic acid (3-chloro-phenyl)-amide]
2.67 | C[C@@H]1CN(CCCC(=O)N2CCC3(CC3)[C@H](O)C2)C(=O)CCN1c1ccc(Cl)c(C(F)(F)F)c1 [Example 126, (R)-1-(4-Chloro-3-trifluoromethyl-phenyl)-4-[4-((S)-4-hydroxy-6-aza-spiro[2.5]oct-6-yl)-4-oxo-butyl]-2-methyl-[1,4]diazepan-5-one]
1.14 | C[C@H]1C(=O)N(CCC(C)(C)C(=O)N2CCC3(CC3)[C@H](O)C2)CCN1C(=O)Nc1ccc(C(F)(F)F)c(Cl)c1 [Example 50, (S)-4-[4-((S)-4-Hydroxy-6-aza-spiro[2.5]oct-6-yl)-3,3-dimethyl-4-oxo-butyl]-2-methyl-3-oxo-piperazine-1-carboxylic acid (3-chloro-4-trifluoromethyl-phenyl)-amide]
3.86 | C[C@H]1C(=O)N(CCC(=O)N2CC[C@H](F)[C@@H](O)C2)CCN1C(=O)Nc1ccc(Cl)c(Cl)c1 (mixture of isomers) [Example 23, (S)-4-[3-((3SR,4SR)-4-Fluoro-3-hydroxy-piperidin-1-yl)-3-oxo-propyl]-2-methyl-3-oxo-piperazine-1-carboxylic acid (3,4-dichloro-phenyl)-amide]

Reference: patent US8445674B2, “Heterocyclyl compounds” (Hoffmann-La Roche Inc, priority 2009, dated 2013)
